Experimental findings from patent US20210244721A1, “SMALL MOLECULE ENTEROVIRUS INHIBITORS AND USES THEREOF” (priority 2020, published 2021) are described below.

Molecules are shown by their SMILES. Read-outs that look alike come from different tables or passages of the source. A value given as a limit tells only on which side of the number the result lay.

Data set [1] has as its system EV-A71 Tainan/4643/98. The data set can be described thus: CPE assay, EV-A71 Tainan in RD cells. The data set is classed as cell-based. The settings on record: Enterovirus A, EVA71; EV-A71 Tainan, RD cells; read-out: EC50.
A short description of data set [2]: in vitro. The settings on record: human.
Data set [3] can be described thus: in vitro. The settings on record: African green monkey.
In data set [4] the test system is EV-D68 US/KY/14-18953 virus. Kind of data set: CPE assay, EV-D68 US/KY/14-18953 in RD cells. It counts as cell-based, Enterovirus D68 (EV-D68). The settings on record: EV-D68 US/KY/14-18953, RD cells.
Data set [5] deals with A549. The data set can be described thus: Cytotoxicity in A549 cells.
Method: (§1) The cytotoxicity of each compound was determined using the neutral red cell viability assay. The assay was performed under similar conditions (incubation temperature, time, and media) as the CPE, but excluded viral infection. Data acquisition and analysis (CC50) was performed similarly to the antiviral CPE assay, and all values are from triplicate experiments.
Data set [6] relates to HeLa. The data set can be described thus: Cytotoxicity in HeLa cells.
Method: as §1
Data set [7] deals with RD cells. The data set can be described thus: Cytotoxicity, neutral red method, RD cells. The settings on record: RD cells, neutral red method.
In data set [8] the test system is EV-D68 US/MO/14-18947. The data set can be described thus: CPE assay, EV-D68 US/MO/14-18947 in RD cells. The settings on record: EV-D68 US/MO/14-18947, RD cells.
Data set [9] concerns EV-D68 US/MO/14-18949. Kind of data set: CPE assay, EV-D68 US/MO/14-18949 in RD cells. The settings on record: EV-D68 US/MO/14-18949, RD cells.
In data set [10] the test system is EV-D68 US/IL/14-18956. The data set can be described thus: CPE assay, EV-D68 US/IL/14-18956 in RD cells. The settings on record: EV-D68 US/IL/14-18956, RD cells.
Data set [11] has as its system EV-D68 UA/IL/14-18952. Kind of data set: CPE assay, EV-D68 UA/IL/14-18952 in RD cells. The settings on record: EV-D68 UA/IL/14-18952, RD cells.
Data set [12] relates to EV-A71 US/AK/16-19516. Kind of data set: CPE assay, EV-A71 US/AK in RD cells. The data set is classed as cell-based. The settings on record: Enterovirus A, EVA71.
The subject of data set [13] is CVB3. The data set can be described thus: CPE assay, CVB3 in Vero C1008 cells. The data set is classed as cell-based, coxsackievirus B3 (CVB3). The settings on record: Enterovirus B; CVB3, Vero C1008 cells; read-out: EC50.
Data set [14] in a line: Mouse microsomal stability. The data set is classed as in vitro ADME. The settings on record: mouse liver microsomes. How it is done: Test compounds were incubated at 37° C. with liver microsomes (mouse or human) (Xenotech) at 1 μM drug concentration in the presence of a NADPH regenerating system at 0.5 mg/ml microsomal protein. Testosterone (3A4 substrate), Propafenone (2D6), and Diclofenac (2C9) were included as positive controls. Compounds were incubated with microsomes in the presence of a NADPH regenerating system (Sigma, Cat. No. N0505, Lot SLBH3107V). Aliquots at 0, 5, 10, 20, 30 and 60 minutes post incubation were collected and immediately mixed with cold acetonitrile containing internal standard (IS). Compounds incubated with microsomes without NADPH regenerating system for 60 minutes were also included. All the samples were analyzed by LC/MS/MS; disappearance of test compound were assessed based on peak area ratios of analyte/IS. Following equations were applied to calculate the microsome clearance: […]
(Liver microsomes are a subcellular fraction often used to study metabolism.)

Data set [15] deals with RD cells. The settings on record: human, 3 days.

A word on the EC50: it is the concentration at which the effect is half-maximal. For orientation: CLint scaled means the rate of metabolic loss divided by the concentration.

As for `Cc1ccc2c(c1)c1c3n2CCNC3CCC1` (stereo not shown) [drawing 197], in data set [1], the concentration giving a half-maximal response (EC50) is more than 20 µM. For the same compound, the CC50 at 3 days was found to be 19 µM in [2] and 40.5 µM in data set [3].
Take `O=C(NCCN1CCCC1)c1cc(-c2cccs2)nc2ccccc12` [drawing 130]: the “SI = selectivity index (CC50/EC50)” value in data set [4] turned out to be 666.7. For the same compound, the CC50 in data set [5] was 83.2 µM; in [6], 41.7 µM; in data set [7], 40 µM. Moreover, the “SI (CC50/EC50)” value in data set [8] turned out to be 666.7; in data set [9], 800; in [10], 800; in data set [11] it was 571.4. For the same compound, the EC50 in data set [8] (Enterovirus D, EVD68, RD) worked out at 0.06 µM.
Turning to `CN(C)CCNC(=O)c1cc(-c2ccccc2)nc2ccccc12` [drawing 181], the EC50 in data set [1] was 4.2 µM; in data set [12], more than 10 µM; in data set [13] it was 0.3 µM; in data set [8], 0.2 µM. Besides, the half-life at 1 μM in [14] (1 μM, NADPH, read-out: Mouse microsomal stability T1/2) turned out to be 22.4 min. The CLint scaled at 1 μM in data set [14] (scaled to liver) was 246 mL/min/kg.
Take `O=C(NC1CN2CCC1CC2)c1cc(-c2ccccc2)nc2ccccc12` (stereo not shown) [Compound 10c, N-{1-azabicyclo[2.2.2]octan-3-yl}-2-phenylquinoline-4-carboxamide]: in data set [15], the CC50 came to 46.5 ± 14.7 µM.
Take `O=C(NC1C2CNCC21)c1cc(-c2cccs2)nc2ccccc12` (stereo not shown) [Compound 6bk, N-{3-azabicyclo[3.1.0]hexan-6-yl}b-2-(thiophen-2-yl)quinoline-4-carboxamide]: the “SI = selectivity index (CC50/EC50)” value in [4] is “SI50 = 5.4”. For the same compound, the concentration giving a half-maximal response (EC50) in data set [4] (Enterovirus D, EVD68, RD, CPE assay, read-out: EC50) was found to be 6.4 µM. Further, the CC50 at 3 days in data set [2] was found to be 34.5 µM.
